#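 Each compound was tested at five concentrations against cells in 96-well plates for 48 hours. Abbreviation: GI50, concentration required for 50% inhibition of growth.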 Active and inactive are the calls of the source. Cut-off read from the data, not from the text of the source: active = GI50 up to about 1.1 µM and inactive = higher.
# Columns and labels:
# Test in all cases: NCI tumour cell line growth inhibition, 48 h
# HOP-92 = system: HOP-92
# SN12C = system: SN12C
# M14 = system: M14
# OVCAR-4 = system: OVCAR-4
# T47D = system: T47D
# SF-295 = system: SF-295
# Hs-578T = system: Hs-578T
# CAKI-1 = system: CAKI-1
# HCT-116 = system: HCT-116
# NCI-H23 = system: NCI-H23
# LOX IMVI = system: LOX IMVI
# OVCAR-3 = system: OVCAR-3
# MDA-MB-435 = system: MDA-MB-435
# DU-145 = system: DU-145
# CCRF-CEM = system: CCRF-CEM
# UACC-62 = system: UACC-62
# UACC-257 = system: UACC-257
# KM12 = system: KM12
# NCI-H522 = system: NCI-H522
# K562 = system: K562
# SNB-19 = system: SNB-19
# OVCAR-8 = system: OVCAR-8
# SK-OV-3 = system: SK-OV-3
# HL-60 = system: HL-60
# SW-620 = system: SW-620
# Malme-3M = system: Malme-3M
# PC-3 = system: PC-3
# HCT-15 = system: HCT-15
# MDA-MB-231 = system: MDA-MB-231
# IGROV-1 = system: IGROV-1
# EKVX = system: EKVX
# OVCAR-5 = system: OVCAR-5
# RPMI-8226 = system: RPMI-8226
# NCI/ADR-RES = system: NCI/ADR-RES
# BT-549 = system: BT-549
# HOP-62 = system: HOP-62
# SR = system: SR
# SNB-75 = system: SNB-75
# COLO 205 = system: COLO 205
# NCI-H226 = system: NCI-H226
# SF-268 = system: SF-268
# UO-31 = system: UO-31
# MOLT-4 = system: MOLT-4
# HT-29 = system: HT-29
# SK-MEL-28 = system: SK-MEL-28
# TK-10 = system: TK-10
# SK-MEL-5 = system: SK-MEL-5
# ACHN = system: ACHN
# A549 = system: A549
# MDA-N = system: MDA-N
# SK-MEL-2 = system: SK-MEL-2
# A498 = system: A498
# 786-0 = system: 786-0
# MCF7 = system: MCF7
# NCI-H460 = system: NCI-H460
# SF-539 = system: SF-539
# HCC 2998 = system: HCC 2998
# U-251 = system: U-251
# RXF 393 = system: RXF 393
structure (smiles),measurement,setting,value
CCCCCCCNC(P(=O)(O)O)P(=O)(O)O,GI50,HOP-92,> 100 µM (inactive)
same,GI50,SN12C,> 100 µM (inactive)
same,GI50,M14,> 100 µM (inactive)
same,GI50,OVCAR-4,> 100 µM (inactive)
same,GI50,T47D,> 100 µM (inactive)
same,GI50,SF-295,> 100 µM (inactive)
same,GI50,Hs-578T,34 µM (inactive)
same,GI50,CAKI-1,> 100 µM (inactive)
same,GI50,HCT-116,> 100 µM (inactive)
same,GI50,NCI-H23,> 100 µM (inactive)
same,GI50,LOX IMVI,> 100 µM (inactive)
same,GI50,OVCAR-3,> 100 µM (inactive)
same,GI50,MDA-MB-435,> 100 µM (inactive)
same,GI50,DU-145,> 100 µM (inactive)
same,GI50,CCRF-CEM,> 100 µM (inactive)
same,GI50,UACC-62,> 100 µM (inactive)
same,GI50,UACC-257,> 100 µM (inactive)
same,GI50,KM12,> 100 µM (inactive)
same,GI50,NCI-H522,> 100 µM (inactive)
same,GI50,K562,> 100 µM (inactive)
same,GI50,SNB-19,> 100 µM (inactive)
same,GI50,OVCAR-8,> 100 µM (inactive)
same,GI50,SK-OV-3,> 100 µM (inactive)
same,GI50,HL-60,> 100 µM (inactive)
same,GI50,SW-620,> 100 µM (inactive)
same,GI50,Malme-3M,> 100 µM (inactive)
same,GI50,PC-3,> 100 µM (inactive)
same,GI50,HCT-15,> 100 µM
same,GI50,MDA-MB-231,> 100 µM (inactive)
same,GI50,IGROV-1,> 100 µM (inactive)
same,GI50,EKVX,> 100 µM (inactive)
same,GI50,OVCAR-5,> 100 µM (inactive)
same,GI50,RPMI-8226,62.8 µM (inactive)
same,GI50,NCI/ADR-RES,> 100 µM (inactive)
same,GI50,BT-549,> 100 µM (inactive)
same,GI50,HOP-62,> 100 µM (inactive)
same,GI50,SR,> 100 µM (inactive)
same,GI50,SNB-75,8.2 µM (inactive)
same,GI50,COLO 205,> 100 µM (inactive)
same,GI50,NCI-H226,> 100 µM (inactive)
same,GI50,SF-268,> 100 µM (inactive)
same,GI50,UO-31,> 100 µM (inactive)
same,GI50,MOLT-4,> 100 µM (inactive)
same,GI50,HT-29,54.7 µM (inactive)
same,GI50,SK-MEL-28,> 100 µM (inactive)
same,GI50,TK-10,> 100 µM (inactive)
same,GI50,SK-MEL-5,97.3 µM (inactive)
same,GI50,ACHN,> 100 µM (inactive)
same,GI50,A549,> 100 µM (inactive)
same,GI50,MDA-N,> 100 µM (inactive)
same,GI50,SK-MEL-2,> 100 µM (inactive)
same,GI50,A498,> 100 µM (inactive)
same,GI50,786-0,> 100 µM (inactive)
same,GI50,MCF7,> 100 µM (inactive)
same,GI50,NCI-H460,> 100 µM (inactive)
same,GI50,SF-539,> 100 µM (inactive)
same,GI50,HCC 2998,56.2 µM (inactive)
same,GI50,U-251,> 100 µM (inactive)
CC(=O)OCCn1c(Cc2ccc([N+](=O)[O-])cc2)nn(C(C)=O)c1=O,GI50,HOP-92,> 100 µM (inactive)
same,GI50,SN12C,> 100 µM (inactive)
same,GI50,M14,> 100 µM (inactive)
same,GI50,OVCAR-4,> 100 µM (inactive)
same,GI50,T47D,> 100 µM (inactive)
same,GI50,SF-295,> 100 µM (inactive)
same,GI50,Hs-578T,> 100 µM (inactive)
same,GI50,CAKI-1,> 100 µM (inactive)
same,GI50,HCT-116,> 100 µM (inactive)
same,GI50,NCI-H23,> 100 µM (inactive)
same,GI50,LOX IMVI,> 100 µM (inactive)
same,GI50,OVCAR-3,> 100 µM (inactive)
same,GI50,MDA-MB-435,> 100 µM (inactive)
same,GI50,DU-145,> 100 µM (inactive)
same,GI50,CCRF-CEM,> 100 µM (inactive)
same,GI50,UACC-62,> 100 µM (inactive)
same,GI50,UACC-257,> 100 µM (inactive)
same,GI50,KM12,> 100 µM (inactive)
same,GI50,NCI-H522,> 100 µM (inactive)
same,GI50,K562,> 100 µM (inactive)
same,GI50,SNB-19,> 100 µM (inactive)
same,GI50,OVCAR-8,> 100 µM (inactive)
same,GI50,SK-OV-3,> 100 µM (inactive)
same,GI50,HL-60,> 100 µM (inactive)
same,GI50,SW-620,> 100 µM (inactive)
same,GI50,Malme-3M,> 100 µM (inactive)
same,GI50,PC-3,> 100 µM (inactive)
same,GI50,HCT-15,> 100 µM
same,GI50,MDA-MB-231,> 100 µM (inactive)
same,GI50,IGROV-1,> 100 µM (inactive)
same,GI50,EKVX,> 100 µM (inactive)
same,GI50,OVCAR-5,> 100 µM (inactive)
same,GI50,RPMI-8226,> 100 µM (inactive)
same,GI50,NCI/ADR-RES,> 100 µM (inactive)
same,GI50,BT-549,> 100 µM (inactive)
same,GI50,SR,> 100 µM (inactive)
same,GI50,COLO 205,> 100 µM (inactive)
same,GI50,NCI-H226,> 100 µM (inactive)
same,GI50,SF-268,> 100 µM (inactive)
same,GI50,UO-31,> 100 µM (inactive)
same,GI50,MOLT-4,> 100 µM (inactive)
same,GI50,HT-29,> 100 µM (inactive)
same,GI50,SK-MEL-28,> 100 µM (inactive)
same,GI50,TK-10,> 100 µM (inactive)
same,GI50,SK-MEL-5,> 100 µM (inactive)
same,GI50,ACHN,> 100 µM (inactive)
same,GI50,A549,> 100 µM (inactive)
same,GI50,MDA-N,> 100 µM (inactive)
same,GI50,SK-MEL-2,> 100 µM (inactive)
same,GI50,A498,> 100 µM (inactive)
same,GI50,786-0,> 100 µM (inactive)
same,GI50,MCF7,> 100 µM (inactive)
same,GI50,NCI-H460,> 100 µM (inactive)
same,GI50,SF-539,> 100 µM (inactive)
same,GI50,HCC 2998,> 100 µM (inactive)
same,GI50,U-251,> 100 µM (inactive)
CCCCCCCCCCC(C(=O)O)C1(C(=O)O)CCC(=O)O1 (centres undefined),GI50,HOP-92,> 100 µM (inactive)
same,GI50,SN12C,> 100 µM (inactive)
same,GI50,M14,> 100 µM (inactive)
same,GI50,OVCAR-4,43.2 µM (inactive)
same,GI50,T47D,> 100 µM (inactive)
same,GI50,SF-295,> 100 µM (inactive)
same,GI50,Hs-578T,> 100 µM (inactive)
same,GI50,CAKI-1,> 100 µM (inactive)
same,GI50,HCT-116,> 100 µM (inactive)
same,GI50,NCI-H23,> 100 µM (inactive)
same,GI50,LOX IMVI,> 100 µM (inactive)
same,GI50,RXF 393,> 100 µM (inactive)
same,GI50,OVCAR-3,> 100 µM (inactive)
same,GI50,MDA-MB-435,> 100 µM (inactive)
same,GI50,DU-145,> 100 µM (inactive)
same,GI50,CCRF-CEM,> 100 µM (inactive)
same,GI50,UACC-62,> 100 µM (inactive)
same,GI50,UACC-257,> 100 µM (inactive)
same,GI50,KM12,> 100 µM (inactive)
same,GI50,NCI-H522,> 100 µM (inactive)
same,GI50,K562,> 100 µM (inactive)
same,GI50,SNB-19,> 100 µM (inactive)
same,GI50,OVCAR-8,> 100 µM (inactive)
same,GI50,SK-OV-3,> 100 µM (inactive)
same,GI50,HL-60,90.8 µM (inactive)
same,GI50,SW-620,> 100 µM (inactive)
same,GI50,PC-3,> 100 µM (inactive)
same,GI50,HCT-15,> 100 µM
same,GI50,MDA-MB-231,> 100 µM (inactive)
same,GI50,IGROV-1,> 100 µM (inactive)
same,GI50,EKVX,> 100 µM (inactive)
same,GI50,OVCAR-5,> 100 µM (inactive)
same,GI50,RPMI-8226,> 100 µM (inactive)
same,GI50,NCI/ADR-RES,> 100 µM (inactive)
same,GI50,BT-549,> 100 µM (inactive)
same,GI50,HOP-62,> 100 µM (inactive)
same,GI50,SR,> 100 µM (inactive)
same,GI50,SNB-75,> 100 µM (inactive)
same,GI50,COLO 205,> 100 µM (inactive)
same,GI50,NCI-H226,> 100 µM (inactive)
same,GI50,SF-268,> 100 µM (inactive)
same,GI50,UO-31,> 100 µM (inactive)
same,GI50,MOLT-4,> 100 µM (inactive)
same,GI50,HT-29,> 100 µM (inactive)
same,GI50,SK-MEL-28,> 100 µM (inactive)
same,GI50,TK-10,> 100 µM (inactive)
same,GI50,ACHN,> 100 µM (inactive)
same,GI50,A549,> 100 µM (inactive)
same,GI50,MDA-N,> 100 µM (inactive)
same,GI50,SK-MEL-2,> 100 µM (inactive)
same,GI50,786-0,> 100 µM (inactive)
same,GI50,MCF7,> 100 µM (inactive)
same,GI50,NCI-H460,> 100 µM (inactive)
same,GI50,HCC 2998,> 100 µM (inactive)
same,GI50,U-251,> 100 µM (inactive)
